The values below come from patent publication US7906546B2, “Tetrahydrocarbazoles and derivatives” (Hoffmann-La Roche Inc., priority 2004, dated 2011).

One assay deals with T1, human LXRβ (Homo sapiens, UniProt P55055).
T1 construct: human LXRβ (aa 155 to 460); made in house; host or cells: E. coli BL21(pLysS)
T1 sequence (P55055 155-460): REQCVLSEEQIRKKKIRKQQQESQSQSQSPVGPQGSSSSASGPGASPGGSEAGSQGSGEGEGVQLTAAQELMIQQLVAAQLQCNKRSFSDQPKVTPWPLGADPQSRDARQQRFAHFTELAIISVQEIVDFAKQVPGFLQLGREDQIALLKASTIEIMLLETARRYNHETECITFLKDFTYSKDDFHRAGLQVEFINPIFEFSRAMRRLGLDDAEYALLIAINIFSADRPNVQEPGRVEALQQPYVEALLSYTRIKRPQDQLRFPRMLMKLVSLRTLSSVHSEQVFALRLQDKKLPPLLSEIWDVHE
Description: Radioligand binding assay (scintillation proximity), LXRbeta. The settings on record: GST-LXRβ-LBD on SPA beads, radioligand displacement. As for the experimental part: (§1) Mammalian expression vectors were constructed to express full-length human LXRα and LXRβ. […] To accomplish this, the portions of the sequences encoding the LBDs were amplified from full-length clones by PCR and then subcloned into the plasmid vectors.
(§2) Induction, expression, and purification of GST-LBD fusion proteins were performed in E. coli strain BL21(pLysS) cells by standard methods (Ref: Current Protocols in Molecular Biology, Wiley Press, edited by Ausubel et al).
(§3) LXRα and LXRβ receptor binding were assayed in buffer consisting of 50 mM HEPES, pH 7.4, 10 mM NaCl, 5 mM MgCl2. For each 96-well reaction, 500 ng of GST-LXRα-LBD or 700 ng of GST-LXRβ-LBD fusion proteins were bound to 80 μg or 40 μg SPA beads (Pharmacia Amersham) respectively, in a final volume of 50 μl by shaking. The resulting slurry was incubated for 1 h at RT and centrifuged for 2 min at 1300×g. The supernatant containing unbound protein was removed, and the semi-dry pellet containing the receptor-coated beads was re-suspended in 50 μl of buffer. […] All binding assays were performed in 96-well plates and the amount of bound ligand was measured on a Packard TopCount using OptiPlates (Packard). […]
(In general: In a scintillation proximity assay essentially only radioactivity close to the scintillant gives light.)

The next assay has as its target T2, human LXRα (Homo sapiens, UniProt Q13133).
T2 construct: human LXRα (aa 164 to 447); made in house; host or cells: E. coli BL21(pLysS)
T2 sequence (Q13133 164-447): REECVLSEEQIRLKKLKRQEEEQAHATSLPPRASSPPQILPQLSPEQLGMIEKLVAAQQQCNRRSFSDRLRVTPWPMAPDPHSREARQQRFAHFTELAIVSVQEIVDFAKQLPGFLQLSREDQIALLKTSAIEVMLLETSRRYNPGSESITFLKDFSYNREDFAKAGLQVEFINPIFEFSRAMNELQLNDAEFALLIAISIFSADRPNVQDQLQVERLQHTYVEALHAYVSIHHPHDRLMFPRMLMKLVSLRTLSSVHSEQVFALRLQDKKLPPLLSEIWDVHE
As to the kind of experiment: Radioligand binding assay (scintillation proximity), LXRalpha. The settings on record: GST-LXRα-LBD on SPA beads, radioligand displacement. As for the experimental part:
as §1, §2, §3

What is called IC50 is the concentration at which inhibition is half-maximal. A high value points to a need for much substance. For the molecule `Cc1nnc([C@@](F)([C@@H]2Cc3[nH]c4ccc(Cl)cc4c3C2)S(=O)(=O)c2cccc(N(C)C)c2)o1` (racemic) [(RS, SR) {3-[(7-chloro-1,2,3,4-tetrahydro-cyclopenta[b]indol-2-yl)-fluoro-(5-methyl-[1,3,4]oxadiazol-2-yl)-methanesulfonyl]-phenyl}-dimethyl-amine], the half-inhibitory concentration (IC50) worked out at 6 nM on human LXRβ and 43 nM on human LXRα.
The matching figures for `COC(=O)[C@@](C)([C@H]1CCc2c([nH]c3ccc(Cl)cc23)C1)S(=O)(=O)c1ccccc1` (racemic) [(RS,SR)-2-benzenesulfonyl-2-(6-chloro-2,3,4,9-tetrahydro-1H-carbazol-2-yl)-propionic acid methyl ester]: 270 nM and 1600 nM.
